{
  "source": "patent US20090247570A1",
  "about": "“PHARMACEUTICALS” (Pfizer Inc, priority 2006, published 2009)",
  "key": {"[1]": {"system": "HIV-1 (CXCR4 using viral population)", "test": "Clinical trial: HIV-1 viral load after 24 weeks in treatment experienced patients infected with a CXCR4 using viral population", "assay_type": "in vivo", "details": "for Mean VL reduction: after 24 weeks, change from baseline; for Treatment difference in VL reduction: 97.5% confidence interval printed in next row", "description": "(§1) (b) were infected with a non R5 tropic (CXCR4 using viral population) as determined by Monogram Bioscience Phenosense™ assay (WO 02/-99383; U.S. Pat. No. 5,837,464), or were of indeterminate tropism phenotype;\n(c) had been on a stable antiviral regimen for at least 4 weeks prior to randomisation:\n(e) (i) had at least three months previous antiretroviral experience with at least one agent from three of the four antiretroviral drug classes: NTRIs, NNRTIs, protease inhibitors and fusion inhibitors (i.e. were triple class experienced); or\n(ii) had documented resistance to members of two of the four antiretroviral drug classes (i.e. were dual class resistant).\n(§2) The eligible patients were randomised into three groups based on the drug regimens they received.\n(§3) Group 3: optimised background therapy (as above) plus placebo.\nThese patients were distributed evenly among the 3 patient groups.\n(§4) The mean of these measurements was taken to be the baseline measurement for each patient.\n(§5) After 24 weeks of treatment, the endpoints (as discussed below) were measured.\n(a) For each patient, the change from baseline in HIV-1 viral load (on a log[base10]scale) was measured.\n(b) The percentage of patients with fewer than (i) 400 and (ii) 50 HIV-1 RNA copies\\mL."}, "CD4 cell count": {"system": "CD4 cell count", "test": "Clinical trial: change from baseline in CD4 cell count (FACS) after 24 weeks", "assay_type": "in vivo, human", "details": "for Mean change in CD4 count: from baseline", "description": "as §1, §2, §3, §4, §5\n(§6) (d) For each patient, the change from baseline in CD4 and CD8 cell count was measured.\n(§7) Cell count was measured by fluorescence activated cell sorting (FACS), which is a standard technique."}, "CD8 cell count": {"system": "CD8 cell count", "test": "Clinical trial: change from baseline in CD8 cell count (FACS) after 24 weeks", "assay_type": "in vivo, human", "details": "for Mean change in CD8 count: from baseline", "procedure": "as §1, §2, §3, §5, §6, §7"}, "[2]": {"details": "once daily maraviroc + optimised regimen, 24 weeks"}, "[3]": {"details": "twice daily maraviroc + optimised regimen, 24 weeks"}, "[4]": {"details": "maraviroc both once and twice daily"}, "[5]": {"details": "once daily maraviroc + optimised regimen"}, "[6]": {"details": "twice daily maraviroc + optimised regimen"}},
  "data": [
    {"substance": "(N-{(1S)-3-[3-isopropyl-5-methyl-4H-1,2,4-triazole-4-yl]-exo-8-azabicyclo[3.2.1]oct-8-yl}-1-phenylpropyl)-4,4-difluorocyclohexanecarboxamide [maraviroc]", "values": [
      {"measurement": "viral load change from baseline", "setting": "[1]; maraviroc once daily and twice daily groups, 24 weeks", "result": "−1.2", "unit": "log10"},
      {"measurement": "Mean VL reduction", "setting": "[1]; once daily maraviroc 150 mg po (300 mg if OBT without PI or delavirdine) + optimised regimen", "result": "−0.91", "unit": "log10 copies/mL"},
      {"measurement": "Treatment difference in VL reduction", "setting": "[1]; once daily maraviroc + optimised regimen vs placebo + optimised regimen, 24 weeks", "result": "+0.06 log10 copies/mL"},
      {"measurement": ">0.5 log10 VL reduction (percentage of patients)", "setting": "[1]; [2]", "result": 42.1, "unit": "%"},
      {"measurement": ">1 log10 VL reduction (percentage of patients)", "setting": "[1]; [2]", "result": 31.6, "unit": "%"},
      {"measurement": "VL < 50 counts\\mL (percentage of patients)", "setting": "[1]; [2]", "result": 21.0, "unit": "%^"},
      {"measurement": "VL < 400 counts/mL (percentage of patients)", "setting": "[1]; [2]", "result": 24.6, "unit": "%"},
      {"measurement": "Mean VL reduction", "setting": "[1]; twice daily maraviroc 150 mg po (300 mg if OBT without PI or delavirdine) + optimised regimen", "result": "−1.20", "unit": "log10 copies/mL"},
      {"measurement": "Treatment difference in VL reduction", "setting": "[1]; twice daily maraviroc + optimised regimen vs placebo + optimised regimen, 24 weeks", "result": "−0.23", "unit": "log10 copies/mL"},
      {"measurement": ">0.5 log10 VL reduction (percentage of patients)", "setting": "[1]; [3]", "result": 48.1, "unit": "%"},
      {"measurement": ">1 log10 VL reduction (percentage of patients)", "setting": "[1]; [3]", "result": 44.2, "unit": "%"},
      {"measurement": "VL < 50 counts\\mL (percentage of patients)", "setting": "[1]; [3]", "result": 26.9, "unit": "%"},
      {"measurement": "VL < 400 counts/mL (percentage of patients)", "setting": "[1]; [3]", "result": 30.8, "unit": "%"},
      {"measurement": "increase in CD4 cell count as compared to the placebo", "setting": "CD4 cell count; [4]", "result": "clinically meaningful (and statistically significant) increase"},
      {"measurement": "mean CD4 change", "setting": "CD4 cell count; maraviroc once daily + OBT", "result": "+59.6 cells/μL"},
      {"measurement": "mean CD4 change", "setting": "CD4 cell count; maraviroc twice daily + OBT", "result": "+62.2 cells/μL"},
      {"measurement": "Mean change in CD4 count", "setting": "CD4 cell count; [5]", "result": "+59.6"},
      {"measurement": "Mean change in CD4 count", "setting": "CD4 cell count; [6]", "result": "+62.4"},
      {"measurement": "increase in CD8 cell count as compared to the placebo", "setting": "CD8 cell count; [4]", "result": "clinically meaningful (and statistically significant) increase"},
      {"measurement": "Mean CD8 cell change", "setting": "CD8 cell count; maraviroc once daily + OBT", "result": "+384.5 cells/μL"},
      {"measurement": "Mean CD8 cell change", "setting": "CD8 cell count; maraviroc twice daily + OBT", "result": "+338.8 cells/μL"},
      {"measurement": "Mean change in CD8 count", "setting": "CD8 cell count; [5]", "result": "+384.5"},
      {"measurement": "Mean change in CD8 count", "setting": "CD8 cell count; [6]", "result": "+338.8"}
    ]}
  ]
}
